Reference: patent US10722520B2, “Heterocyclic compounds and their use in preventing or treating bacterial infections” (MUTABILIS, priority 2016, dated 2020)
Read-outs that look alike come from different tables or passages of the source.

Tests used:
AmpC (P99) = AmpC (P99) (Enterobacter cloacae, UniProt P05364); test: biochemical
TEM-1 = TEM-1 (Escherichia coli, UniProt P62593)
SHV-1 = SHV-1 (Klebsiella pneumoniae, UniProt P0AD64)
K. pneumoniae UFR24 = test: MIC of compound alone, broth microdilution; assay type: cell-based; conditions: strain UFR24: K. pneumoniae, TEM-1, SHV-2, SHV-11, OXA-1, OXA-48, OXA-47; for MIC: Klebsiella pneumoniae, read-out: MIC compounds of the invention alone
In short: (§1)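 Growth inhibition was scored by eye after 16-20 h at 35° C (room air), with bacteria from log phase seeded at 5×10^5 cfu/mL final in cation-adjusted Mueller-Hinton medium.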

K. pneumoniae 160143 = test: MIC of compound alone, broth microdilution; assay type: cell-based; conditions: strain 160143: K. pneumoniae, TEM-1, SHV-1, CTX-M-15, KPC-2, OXA-1; for MIC: Klebsiella pneumoniae, read-out: MIC compounds of the invention alone
In short: as §1

E. cloacae 260508 = test: MIC of compound alone, broth microdilution; assay type: cell-based; conditions: strain 260508: E. cloacae, TEM-1, CTX-M-15; for MIC: Enterobacter cloacae, read-out: MIC compounds of the invention alone
In short: as §1

K. pneumoniae UFR68 = test: MIC of compound alone, broth microdilution; assay type: cell-based; conditions: strain UFR68: K. pneumoniae, TEM-1, SHV-11, CTX-M-15, KPC-3; for MIC: Klebsiella pneumoniae, read-out: MIC compounds of the invention alone
In short: as §1

K. pneumoniae 6299 = test: MIC of compound alone, broth microdilution; assay type: cell-based; conditions: strain 6299: K. pneumoniae, TEM-1, SHV-11, OXA-163; for MIC: Klebsiella pneumoniae, read-out: MIC compounds of the invention alone
In short: as §1

E. coli UFR32 = test: MIC of compound alone, broth microdilution; assay type: cell-based; conditions: strain UFR32: E. coli, TEM-1, VEB-1, OXA-10; for MIC: Escherichia coli, read-out: MIC compounds of the invention alone
In short: as §1

E. coli UFR18 = test: MIC of compound alone, broth microdilution; assay type: cell-based; conditions: strain UFR18: E. coli, CTX-M-15, OXA-204; for MIC: Escherichia coli, read-out: MIC compounds of the invention alone
In short: as §1

E. cloacae UFR51 = test: MIC of compound alone, broth microdilution; assay type: cell-based; conditions: strain UFR51: E. cloacae, SHV-12, IMP-8; for MIC: Enterobacter cloacae, read-out: MIC compounds of the invention alone
In short: as §1

E. cloacae P99 = test: MIC of compound alone, broth microdilution; assay type: cell-based; conditions: strain P99: E. cloacae, AmpC; for MIC: Enterobacter cloacae, read-out: MIC compounds of the invention alone
In short: as §1

E. coli UFR61O = test: MIC of compound alone, broth microdilution; assay type: cell-based; conditions: strain UFR61O: E. coli, TEM-1, KPC-2; for MIC: Escherichia coli, read-out: MIC compounds of the invention alone
In short: as §1

P. aeruginosa CIP107051 = test: MIC of compound alone, broth microdilution; assay type: cell-based; conditions: strain CIP107051: P. aeruginosa, TEM-24; for MIC: Pseudomonas aeruginosa, read-out: MIC compounds of the invention alone
In short: as §1

E. cloacae UFR70 = test: MIC of compound alone, broth microdilution; assay type: cell-based; conditions: strain UFR70: E. cloacae, TEM-1, CTX-M-15, CMY-2, OXA-1, Porin loss; for MIC: Enterobacter cloacae, read-out: MIC compounds of the invention alone
In short: as §1

K. pneumoniae BAA-1898 = test: MIC of compound alone, broth microdilution; assay type: cell-based; conditions: strain BAA-1898: K. pneumoniae, TEM-1, SHV-11, SHV-12, KPC-2; for MIC: Klebsiella pneumoniae, BAA1898, read-out: MIC compounds of the invention alone
In short: as §1

E. cloacae UFR85 = test: MIC of compound alone, broth microdilution; assay type: cell-based; conditions: strain UFR85: E. cloacae, TEM-1, CTX-M-15, AmpC; for MIC: Enterobacter cloacae, read-out: MIC compounds of the invention alone
In short: as §1

E. coli UFR41 = test: MIC of compound alone, broth microdilution; assay type: cell-based; conditions: strain UFR41: E. coli, TEM-1, CTX-M-15, CMY-2, OXA-1, NDM-4; for MIC: Escherichia coli, read-out: MIC compounds of the invention alone
In short: as §1

E. coli UFR39 = test: MIC of compound alone, broth microdilution; assay type: cell-based; conditions: for MIC: Escherichia coli, UFR39, read-out: MIC compounds of the invention alone
In short: as §1

E. coli 131119 = test: MIC of compound alone, broth microdilution; assay type: cell-based; conditions: strain 131119: E. coli, TEM-1, OXA-48; for MIC: Escherichia coli, read-out: MIC compounds of the invention alone
In short: as §1

K. pneumoniae 200047 = test: MIC of compound alone, broth microdilution; assay type: cell-based; conditions: strain 200047: K. pneumoniae, TEM-1, SHV-32, CTX-M-15, OXA-1; for MIC: Klebsiella pneumoniae, read-out: MIC compounds of the invention alone
In short: as §1

K. pneumoniae UFR77 = test: MIC of compound alone, broth microdilution; assay type: cell-based; conditions: strain UFR77: K. pneumoniae, CMY-2; for MIC: Klebsiella pneumoniae, read-out: MIC compounds of the invention alone
In short: as §1

E. coli UFR74 = test: MIC of compound alone, broth microdilution; assay type: cell-based; conditions: strain UFR74: E. coli, SHV-1, DHA-1; for MIC: Escherichia coli, read-out: MIC compounds of the invention alone
In short: as §1

OXA-1 = OXA-1 (Escherichia coli, UniProt P13661)
CMY-37 = CMY-37 (Citrobacter freundii, UniProt P05193); conditions: read-out: IC50 β-lactamase CMY-37
OXA-11 = OXA-11 (Pseudomonas aeruginosa, UniProt Q06778)

## O=C1N2CC(n3ccsc3=O)=CC(C2)N1OS(=O)(=O)[O-].[Na+] (centres unmarked) [Example 1, Sodium [7-oxo-3-(2-oxo-thiazol-3-yl)-1,6-diaza-bicyclo[3.2.1]oct-3-en-6-yl]sulfate]
AmpC (P99)
  IC50: 0.03 µM
TEM-1
  IC50: 0.00025 µM
SHV-1
  IC50: 0.0015 µM
K. pneumoniae UFR24
  MIC: 16 mg/L
K. pneumoniae 160143
  MIC: 4 mg/L
E. cloacae 260508
  MIC: 4 mg/L
K. pneumoniae UFR68
  MIC: 8 mg/L
K. pneumoniae 6299
  MIC: 32 mg/L
E. coli UFR32
  MIC: 4 mg/L
E. coli UFR18
  MIC: 2 mg/L
E. cloacae UFR51
  MIC: 4 mg/L
E. cloacae P99
  MIC: 4 mg/L
E. coli UFR61O
  MIC: 16 mg/L
P. aeruginosa CIP107051
  MIC: > 32 mg/L
E. cloacae UFR70
  MIC: 4 mg/L
K. pneumoniae BAA-1898
  MIC: 8 mg/L
E. cloacae UFR85
  MIC: 4 mg/L
E. coli UFR41
  MIC: 4 mg/L
E. coli UFR39
  MIC: 2 mg/L
E. coli 131119
  MIC: 2 mg/L
K. pneumoniae 200047
  MIC: 8 mg/L
K. pneumoniae UFR77
  MIC: 8 mg/L
E. coli UFR74
  MIC: 16 mg/L
OXA-1
  IC50: 0.12 µM
CMY-37
  IC50: 0.033 µM
OXA-11
  IC50: 0.092 µM

## O=C1N2CC(n3ccnn3)=CC(C2)N1OS(=O)(=O)[O-].[Na+] (centres unmarked) [Example 2, sodium [7-oxo-3-(triazol-1-yl)-1,6-diazabicyclo[3.2.1]oct-3-en-6-yl]sulfate]
TEM-1; read-out: IC50 β-lactamase TEM-1, class (A), nitrocefin 200 μM, 30-min pre-incubation, enzyme 0.1 nM
  IC50: 0.00056 µM
SHV-1; read-out: IC50 β-lactamase SHV-1, class (A), nitrocefin 200 μM, 30-min pre-incubation, enzyme 0.075 nM
  IC50: 0.004 µM
K. pneumoniae UFR24
  MIC compounds of the invention alone: 4 mg/L
K. pneumoniae 160143
  MIC compounds of the invention alone: 2 mg/L
E. cloacae 260508
  MIC compounds of the invention alone: 2 mg/L
K. pneumoniae UFR68
  MIC compounds of the invention alone: 4 mg/L
K. pneumoniae 6299
  MIC compounds of the invention alone: 4 mg/L
E. coli UFR32
  MIC compounds of the invention alone: 1 mg/L
E. coli UFR18
  MIC compounds of the invention alone: 1 mg/L
E. cloacae UFR51
  MIC compounds of the invention alone: 2 mg/L
E. cloacae P99
  MIC compounds of the invention alone: 1 mg/L
E. coli UFR61O
  MIC compounds of the invention alone: 4 mg/L
P. aeruginosa CIP107051
  MIC compounds of the invention alone: >32 mg/L
E. cloacae UFR70
  MIC compounds of the invention alone: 1 mg/L
K. pneumoniae BAA-1898
  MIC compounds of the invention alone: 2 mg/L
E. cloacae UFR85
  MIC compounds of the invention alone: 1 mg/L
E. coli UFR41
  MIC compounds of the invention alone: 2 mg/L
E. coli UFR39; strain UFR39: E. coli, CTX-M-15, NDM-1
  MIC compounds of the invention alone: 1 mg/L
E. coli 131119
  MIC compounds of the invention alone: 1 mg/L
K. pneumoniae 200047
  MIC compounds of the invention alone: 2 mg/L
K. pneumoniae UFR77
  MIC compounds of the invention alone: 2 mg/L
E. coli UFR74
  MIC compounds of the invention alone: 2 mg/L
OXA-1; read-out: IC50 β-lactamase OXA-1, class (D), nitrocefin 200 μM, 30-min pre-incubation, enzyme 0.2 nM
  IC50: 0.058 µM
CMY-37; class (C), nitrocefin 200 μM, 30-min pre-incubation, enzyme 0.2 nM
  IC50: 0.031 µM
OXA-11; read-out: IC50 β-lactamase OXA-11, class (D), nitrocefin 200 μM, 30-min pre-incubation, enzyme 1.2 nM
  IC50: 0.04 µM

## O=C1N2CC(n3nccn3)=CC(C2)N1OS(=O)(=O)O (centres unmarked) [Example 3, sodium [7-oxo-3-(triazol-2-yl)-1,6-diazabicyclo[3.2.1]oct-3-en-6-yl]sulfate]
TEM-1
  IC50: 0.00073 µM
SHV-1
  IC50: 0.0097 µM
K. pneumoniae UFR24
  MIC: 8 mg/L
K. pneumoniae 160143
  MIC: 4 mg/L
E. cloacae 260508
  MIC: 4 mg/L
K. pneumoniae UFR68
  MIC: 8 mg/L
K. pneumoniae 6299
  MIC: 16 mg/L
E. coli UFR32
  MIC: 2 mg/L
E. coli UFR18
  MIC: 2 mg/L
E. cloacae UFR51
  MIC: 2 mg/L
E. cloacae P99
  MIC: 8 mg/L
E. coli UFR61O
  MIC: 8 mg/L
P. aeruginosa CIP107051
  MIC: > 32 mg/L
E. cloacae UFR70
  MIC: 4 mg/L
K. pneumoniae BAA-1898
  MIC: 8 mg/L
E. cloacae UFR85
  MIC: 4 mg/L
E. coli UFR41
  MIC: 16 mg/L
E. coli UFR39
  MIC: 8 mg/L
E. coli 131119
  MIC: 1 mg/L
K. pneumoniae 200047
  MIC: 4 mg/L
K. pneumoniae UFR77
  MIC: 4 mg/L
E. coli UFR74
  MIC: 8 mg/L
OXA-1
  IC50: 0.2 µM
OXA-11
  IC50: 0.085 µM

## O=C1N2CC(n3cncn3)=CC(C2)N1OS(=O)(=O)[O-].[Na+] (centres unmarked) [Example 5, sodium [7-oxo-3-(1,2,4-triazol-1-yl)-1,6-diazabicyclo[3.2.1]oct-3-en-6-yl]sulfate]
AmpC (P99)
  IC50: 0.016 µM
TEM-1
  IC50: 0.0008 µM
SHV-1
  IC50: 0.0044 µM
K. pneumoniae UFR24
  MIC: 2 mg/L
K. pneumoniae 160143
  MIC: 2 mg/L
E. cloacae 260508
  MIC: 4 mg/L
K. pneumoniae UFR68
  MIC: 4 mg/L
K. pneumoniae 6299
  MIC: 4 mg/L
E. coli UFR32
  MIC: 2 mg/L
E. coli UFR18
  MIC: 2 mg/L
E. cloacae UFR51
  MIC: 4 mg/L
E. cloacae P99
  MIC: 4 mg/L
E. coli UFR61O
  MIC: 8 mg/L
P. aeruginosa CIP107051
  MIC: > 32 mg/L
E. cloacae UFR70
  MIC: 2 mg/L
K. pneumoniae BAA-1898
  MIC: 4 mg/L
E. cloacae UFR85
  MIC: 4 mg/L
E. coli UFR41
  MIC: 4 mg/L
E. coli UFR39
  MIC: 2 mg/L
E. coli 131119
  MIC: 2 mg/L
K. pneumoniae 200047
  MIC: 2 mg/L
K. pneumoniae UFR77
  MIC: 4 mg/L
E. coli UFR74
  MIC: 4 mg/L
OXA-1
  IC50: 0.049 µM
CMY-37
  IC50: 0.036 µM
OXA-11
  IC50: 0.014 µM

## O=C1N2CC(n3ccnn3)=C[C@H](C2)N1OS(=O)(=O)O [Example 6, sodium [(5R)-7-oxo-3-(triazol-1-yl)-1,6-diazabicyclo[3.2.1]oct-3-en-6-yl]sulfate]
TEM-1
  IC50: 0.00036 µM
SHV-1
  IC50: 0.0019 µM
K. pneumoniae UFR24
  MIC: 1 mg/L
K. pneumoniae 160143
  MIC: 1 mg/L
E. cloacae 260508
  MIC: 1 mg/L
K. pneumoniae UFR68
  MIC: 1 mg/L
K. pneumoniae 6299
  MIC: 2 mg/L
E. coli UFR32
  MIC: 0.5 mg/L
E. coli UFR18
  MIC: 0.5 mg/L
E. cloacae UFR51
  MIC: 1 mg/L
E. cloacae P99
  MIC: 1 mg/L
E. coli UFR61O
  MIC: 2 mg/L
P. aeruginosa CIP107051
  MIC: 32 mg/L
E. cloacae UFR70
  MIC: 0.5 mg/L
K. pneumoniae BAA-1898
  MIC: 2 mg/L
E. cloacae UFR85
  MIC: 1 mg/L
E. coli UFR41
  MIC: 2 mg/L
E. coli UFR39
  MIC: 1 mg/L
E. coli 131119
  MIC: 0.5 mg/L
K. pneumoniae 200047
  MIC: 1 mg/L
K. pneumoniae UFR77
  MIC: 1 mg/L
E. coli UFR74
  MIC: 1 mg/L
OXA-1
  IC50: 0.031 µM
OXA-11
  IC50: 0.021 µM
